Laboratory results as given in patent publication US20080038290A1, “Cosmetic slimming composition containing an extract of biomass of the alga neochloris oleoabundans” (LVMH RECHERCHE, priority 2006, published 2008).
Entries after “also recorded” stand apart in the source; their conditions may differ.

System: explants of adipose tissues
Assay: Assay of lipolytic activity: free fatty acids released into the culture medium from adipose tissue explants kept alive
Format: cell-based
Conditions: caffeine at a concentration of 0.01% (100 μg/ml)
Procedure: The different extracts are incorporated into the culture medium under the conditions described below.
After a contact time of 8 days, the activity is evaluated by assaying the fatty acids released into the culture medium.
Preparation of 9 explants of adipose tissues and keeping them alive in BEM (BIO-EC's Explants Medium)
Division of the explants into 3 batches of 3 explants: • a reference batch, in the presence of the culture medium • a batch treated with caffeine as a positive reference • a batch treated with an extract according to the invention
At D0 the explants are kept alive in 2 ml of culture medium in which the test extract is incorporated.
This treatment is repeated at D2, D4 and D6.
At D2, D4, D6 and D8 the culture medium is sampled. For each explant the media sampled at D2, D4, D6 and D8 are combined in the same tube and stored at −20° C. for assaying the fatty acids present in the medium.
After extraction of the culture medium, the free fatty acids present therein are separated off and assayed by high performance thin layer chromatography.
The lipolytic activity is evaluated by determining the proportions of free fatty acids released into the culture medium.

SMILES: Cn1c(=O)c2c(ncn2C)n(C)c1=O [Caffeine, caffeine]
- lipolytic effect: no longer having a lipolytic effect; also recorded: no longer active
